From publication PMC3362645, “The Sigma Class Glutathione Transferase from the Liver Fluke Fasciola hepatica” (PLoS Neglected Tropical Diseases, 2012)

The compounds below were run against T1, rFhGST-S1 (recombinant Fasciola hepatica Sigma class glutathione transferase) (Fasciola hepatica, UniProt Q06A71) (assay: inhibition of GSH-CDNB conjugation, spectrophotometric, graphical IC50).
T1 sequence (Q06A71 1-211): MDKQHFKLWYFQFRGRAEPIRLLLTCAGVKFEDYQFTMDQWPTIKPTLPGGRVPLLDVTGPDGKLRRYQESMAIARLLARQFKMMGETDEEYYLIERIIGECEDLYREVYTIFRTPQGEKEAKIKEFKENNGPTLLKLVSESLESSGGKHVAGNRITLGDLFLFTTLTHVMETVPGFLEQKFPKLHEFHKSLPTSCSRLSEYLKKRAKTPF
Assay type: biochemical
Work on `C[C@H](CCC(=O)O)[C@H]1CC[C@H]2[C@@H]3[C@H](O)C[C@@H]4C[C@H](O)CC[C@]4(C)[C@H]3C[C@H](O)[C@]12C` [Cholic acid] yielded an IC50 of 302 ± 73 µM.
With `C[C@H](CCC(=O)O)[C@H]1CC[C@H]2[C@@H]3[C@H](O)C[C@@H]4C[C@H](O)CC[C@]4(C)[C@H]3CC[C@]12C` [Chenodeoxycholic acid] the IC50 was 64 ± 9 µM.
`C[C@H](CCC(=O)O)[C@H]1CC[C@H]2[C@@H]3CC[C@@H]4C[C@H](O)CC[C@]4(C)[C@H]3C[C@H](O)[C@]12C` [Deoxycholic acid] gave an IC50 of 223 ± 21 µM.
`C[S+]([O-])c1nc2cc(Cl)c(Oc3cccc(Cl)c3Cl)cc2[nH]1` (stereo not shown) [TCBZ SO, sulphoxide derivative of Triclabendazole] was tested, and the IC50 was 57 ± 5 µM.
